Assay results from PubChem BioAssay AID2060513 (Molecular Pharmacology Branch, DTP, NCI, 2025).

System: 299254-011-R-J1-PDC complex spheroids viability
Assay: Anticancer human tumor 299254-011-R-J1-PDC patient-derived melanoma cell line growth inhibition [GQUAD]
Details: for IC50: curve of first compound; for viability, T/C: stronger effect = lower value
How it was run: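 Viability of tumor cells grown as complex spheroids with endothelial and stromal cells, exposed to drug combinations. Top concentration at or near clinical Cmax (else 10 microM), diluted in half-log increments.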

[1] = second compound 0.0316 µM, first compound 0.0316 µM
[2] = second compound 0.0316 µM, first compound 0.1 µM
[3] = second compound 0.0316 µM, first compound 0.316 µM
[4] = second compound 0.0316 µM, first compound 1 µM
[5] = second compound 0.0316 µM, first compound 3.16 µM
[6] = second compound 0.0316 µM, first compound 10 µM
[7] = second compound 0.1 µM, first compound 0.0316 µM
[8] = second compound 0.1 µM, first compound 0.1 µM
[9] = second compound 0.1 µM, first compound 0.316 µM
[10] = second compound 0.1 µM, first compound 1 µM
[11] = second compound 0.1 µM, first compound 3.16 µM
[12] = second compound 0.1 µM, first compound 10 µM
[13] = second compound 0.316 µM, first compound 0.0316 µM
[14] = second compound 0.316 µM, first compound 0.1 µM
[15] = second compound 0.316 µM, first compound 0.316 µM
[16] = second compound 0.316 µM, first compound 1 µM
[17] = second compound 0.316 µM, first compound 3.16 µM
[18] = second compound 0.316 µM, first compound 10 µM
[19] = second compound 1 µM, first compound 0.0316 µM
[20] = second compound 1 µM, first compound 0.1 µM
[21] = second compound 1 µM, first compound 0.316 µM
[22] = second compound 1 µM, first compound 1 µM
[23] = second compound 1 µM, first compound 3.16 µM
[24] = second compound 1 µM, first compound 10 µM
[25] = second compound 3.16 µM, first compound 0.0316 µM
[26] = second compound 3.16 µM, first compound 0.1 µM
[27] = second compound 3.16 µM, first compound 0.316 µM
[28] = second compound 3.16 µM, first compound 1 µM
[29] = second compound 3.16 µM, first compound 3.16 µM
[30] = second compound 3.16 µM, first compound 10 µM
[31] = second compound 10 µM, first compound 0.0316 µM
[32] = second compound 10 µM, first compound 0.1 µM
[33] = second compound 10 µM, first compound 0.316 µM
[34] = second compound 10 µM, first compound 1 µM
[35] = second compound 10 µM, first compound 3.16 µM
[36] = second compound 10 µM, first compound 10 µM
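Also: spheroids exposed to the agents for seven days before readout.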
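For viability, T/C in this document: percent viability relative to DMSO vehicle control wells = 100%.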

Structure (SMILES): CC(C)n1c(=O)n(C)c2cnc3cc(F)c(-c4ccc(OCCCN5CCCCC5)nc4)cc3c21 + Cc1[nH]c2ccc(F)cc2c1-c1nc2c3cccnc3c3ncccc3c2[nH]1
- IC50 (second compound 0.0316 µM): > 10 µM
- IC50 (second compound 0.1 µM): > 10 µM
- IC50 (second compound 0.316 µM): > 10 µM
- IC50 (second compound 1 µM): > 10 µM
- IC50 (second compound 3.16 µM): > 10 µM
- IC50 (second compound 10 µM): 9.86 µM
- viability, T/C [1]: 90.2%
- viability, T/C [2]: 94.3%
- viability, T/C [3]: 98.1%
- viability, T/C [4]: 75.2%
- viability, T/C [5]: 86.7%
- viability, T/C [6]: 54.3%
- viability, T/C [7]: 85.9%
- viability, T/C [8]: 103%
- viability, T/C [9]: 124%
- viability, T/C [10]: 96.5%
- viability, T/C [11]: 83.1%
- viability, T/C [12]: 58.3%
- viability, T/C [13]: 106%
- viability, T/C [14]: 98.8%
- viability, T/C [15]: 105%
- viability, T/C [16]: 94.2%
- viability, T/C [17]: 84.4%
- viability, T/C [18]: 52.4%
- viability, T/C [19]: 83%
- viability, T/C [20]: 97.7%
- viability, T/C [21]: 118%
- viability, T/C [22]: 115%
- viability, T/C [23]: 98.8%
- viability, T/C [24]: 58.1%
- viability, T/C [25]: 89.9%
- viability, T/C [26]: 107%
- viability, T/C [27]: 89.5%
- viability, T/C [28]: 111%
- viability, T/C [29]: 94.4%
- viability, T/C [30]: 56.9%
- viability, T/C [31]: 96.8%
- viability, T/C [32]: 107%
- viability, T/C [33]: 98%
- viability, T/C [34]: 84.8%
- viability, T/C [35]: 96.8%
- viability, T/C [36]: 49.5%

Structure (SMILES): C=CCn1c(=O)c2cnc(Nc3ccc(N4CCN(C)CC4)cc3)nc2n1-c1cccc(C(C)(C)O)n1 + Cc1cnc(CNC(=O)c2c(=O)c3ccc(N4CCCN(C)CC4)nc3n3c2sc2ccccc23)cn1
- IC50 (second compound 0.0316 µM): 1.54 µM
- IC50 (second compound 0.1 µM): 1.5 µM
- IC50 (second compound 0.316 µM): 1.18 µM
- IC50 (second compound 1 µM): 0.678 µM
- IC50 (second compound 3.16 µM): 0.607 µM
- IC50 (second compound 10 µM): < 0.0316 µM
- viability, T/C [1]: 118%
- viability, T/C [2]: 109%
- viability, T/C [3]: 100%
- viability, T/C [4]: 55.2%
- viability, T/C [5]: 41%
- viability, T/C [6]: 25.3%
- viability, T/C [7]: 109%
- viability, T/C [8]: 112%
- viability, T/C [9]: 77.3%
- viability, T/C [10]: 64.2%
- viability, T/C [11]: 31.5%
- viability, T/C [12]: 27.1%
- viability, T/C [13]: 89.8%
- viability, T/C [14]: 125%
- viability, T/C [15]: 88.2%
- viability, T/C [16]: 55%
- viability, T/C [17]: 30.1%
- viability, T/C [18]: 30.1%
- viability, T/C [19]: 75.3%
- viability, T/C [20]: 80.8%
- viability, T/C [21]: 71.9%
- viability, T/C [22]: 38.6%
- viability, T/C [23]: 27.9%
- viability, T/C [24]: 24.4%
- viability, T/C [25]: 73.3%
- viability, T/C [26]: 74.9%
- viability, T/C [27]: 55.5%
- viability, T/C [28]: 44.4%
- viability, T/C [29]: 28.9%
- viability, T/C [30]: 20.2%
- viability, T/C [31]: 19%
- viability, T/C [32]: 15.2%
- viability, T/C [33]: 41.8%
- viability, T/C [34]: 36.9%
- viability, T/C [35]: 0.45%
- viability, T/C [36]: 0.32%

Structure (SMILES): COc1cc(C2c3cc4c(cc3C(OC3OC5COC(C)OC5C(O)C3O)C3COC(=O)C23)OCO4)cc(OC)c1O (stereo unspecified) + Cc1[nH]c2ccc(F)cc2c1-c1nc2c3cccnc3c3ncccc3c2[nH]1
- IC50 (second compound 0.0316 µM): > 10 µM
- IC50 (second compound 0.1 µM): > 10 µM
- IC50 (second compound 0.316 µM): > 10 µM
- IC50 (second compound 1 µM): > 10 µM
- IC50 (second compound 3.16 µM): > 10 µM
- IC50 (second compound 10 µM): > 10 µM
- viability, T/C [1]: 81.2%
- viability, T/C [2]: 79.1%
- viability, T/C [3]: 108%
- viability, T/C [4]: 85%
- viability, T/C [5]: 94.5%
- viability, T/C [6]: 76.5%
- viability, T/C [7]: 100%
- viability, T/C [8]: 97.5%
- viability, T/C [9]: 81.2%
- viability, T/C [10]: 76.5%
- viability, T/C [11]: 99.2%
- viability, T/C [12]: 80.1%
- viability, T/C [13]: 100%
- viability, T/C [14]: 77.3%
- viability, T/C [15]: 82.5%
- viability, T/C [16]: 86.9%
- viability, T/C [17]: 84.3%
- viability, T/C [18]: 70.5%
- viability, T/C [19]: 101%
- viability, T/C [20]: 86%
- viability, T/C [21]: 106%
- viability, T/C [22]: 87.1%
- viability, T/C [23]: 96.7%
- viability, T/C [24]: 72.2%
- viability, T/C [25]: 99.9%
- viability, T/C [26]: 84.9%
- viability, T/C [27]: 89.5%
- viability, T/C [28]: 89.4%
- viability, T/C [29]: 89.5%
- viability, T/C [30]: 95%
- viability, T/C [31]: 89.7%
- viability, T/C [32]: 83%
- viability, T/C [33]: 95.3%
- viability, T/C [34]: 86.1%
- viability, T/C [35]: 96.2%
- viability, T/C [36]: 56.5%
